Experiment [1] concerns Escherichia coli. Nature of the experiment: Antibacterial activity against Escherichia coli MTCC 443 incubated for 16 to 18 hrs by broth dilution method. Type of experiment: functional. Particulars: time 16-18 hrs. (Broth dilution looks for growth in wells or tubes with falling amounts of substance.)
Experiment [2] relates to Enterococcus faecium. As to the kind of experiment: Antibacterial activity against Enterococcus faecium ATCC 19634 incubated for 16 to 18 hrs by broth dilution method. Type of experiment: functional. Particulars: time 16-18 hrs.
The subject of experiment [3] is Enterococcus faecium. Nature of the experiment: Antibacterial activity against vancomycin-resistant Enterococcus faecium 903 incubated for 16 to 18 hrs by broth dilution method. The following applies: time 16-18 hrs. The class given is functional.
Experiment [4] relates to Staphylococcus epidermidis. As to the kind of experiment: Antibacterial activity against Staphylococcus epidermidis MTCC 3615 incubated for 16 to 18 hrs by broth dilution method. The following applies: time 16-18 hrs. Type of experiment: functional.
The subject of experiment [5] is Staphylococcus aureus. Nature of the experiment: Antibacterial activity against vancomycin-resistant Staphylococcus aureus 1 incubated for 16 to 18 hrs by broth dilution method. Type of experiment: functional. Particulars: time 16-18 hrs.
Experiment [6] relates to Enterococcus faecium. As to the kind of experiment: Antibacterial activity against vancomycin-resistant Enterococcus faecium 909 incubated for 16 to 18 hrs by broth dilution method. The following applies: time 16-18 hrs. Type of experiment: functional.
Experiment [7] relates to Staphylococcus aureus. As to the kind of experiment: Antibacterial activity against vancomycin-resistant Staphylococcus aureus 4 incubated for 16 to 18 hrs by broth dilution method. Type of experiment: functional. The following applies: time 16-18 hrs.
In experiment [8] the test system is Staphylococcus aureus. As to the kind of experiment: Antibiofilm activity against methicillin-resistant Staphylococcus aureus ATCC 33591 assessed as eradication of enclosed biofilm measuring by reduction in green fluorescence at 32 ug/ml by Syto-9/PI staining based confocal laser scanning microscopy. The class given is functional, organism-based. The following applies: dose 32.0 µg/ml.

Our source for the MIC and Activity values is ChEMBL document CHEMBL5532755, “Unveiling the potent activity of a synthetic ion transporter against multidrug-resistant Gram-positive bacteria and biofilms” (RSC Med Chem, 2024).

Values after ≈ are worked out from the molar mass of the structure shown. Active and inactive are the calls of the source. No cut-off for these calls is given here.

As a reminder, the MIC is the least concentration at which growth counts as inhibited. A high value points to a less susceptible organism. As for COLISTIN, the MIC in experiment [1] was 1 µg/mL.
For `CC(=O)NC[C@H]1CN(c2ccc(N3CCOCC3)c(F)c2)C(=O)O1` [LINEZOLID], the MIC in experiment [2] worked out at 4 µg/mL (≈ 11.9 µM); in experiment [3], 32 µg/mL (≈ 94.9 µM); in experiment [4], 2 µg/mL (≈ 5.93 µM); in experiment [5], 1 µg/mL (≈ 2.96 µM); in experiment [6] it was 2 µg/mL (≈ 5.93 µM); in experiment [7], 1 µg/mL (≈ 2.96 µM).
As for `CN[C@H](CC(C)C)C(=O)N[C@H]1C(=O)N[C@@H](CC(N)=O)C(=O)N[C@H]2C(=O)N[C@H]3C(=O)N[C@H](C(=O)N[C@H](C(=O)O)c4cc(O)cc(O)c4-c4cc3ccc4O)[C@H](O)c3ccc(c(Cl)c3)Oc3cc2cc(c3O[C@@H]2O[C@H](CO)[C@@H](O)[C@H](O)[C@H]2O[C@H]2C[C@](C)(N)[C@H](O)[C@H](C)O2)Oc2ccc(cc2Cl)[C@H]1O` [VANCOMYCIN], the MIC in experiment [3] stood at 1020 µg/mL (≈ 707 µM); in experiment [5] it was 512 µg/mL (≈ 353 µM); in experiment [6], 512 µg/mL (≈ 353 µM); in experiment [7] it was 512 µg/mL (≈ 353 µM). Besides, the outcome in experiment [8] was inactive.
